From patent publication US20240132450A1, “MODULATORS OF G PROTEIN-COUPLED RECEPTOR 88” (ACADIA Pharmaceuticals Inc., priority 2020, published 2024)

Target: hGPR88 receptor (Homo sapiens, UniProt Q9GZN0)
Assay: hGPR88-HEK cAMP accumulation assay
Details: GRP88 agonist activity (EC50), HEK-293 cells expressing human recombinant GPR88, forskolin 200 nM, High/Medium/Low bands
Description: Biological Assay 1: hGPR88-HEK cAMP Accumulation Assay
Cryopreserved vials of HEK-293 cells expressing human recombinant GPR88 receptor are re-suspended in KRH assay buffer and 5 μl of cell solution is suspended in test wells at a seeding density of 2500±500 cells per well using the multidrop to provide a final reaction volume of 10 μl containing 0.5% DMSO. Assay plate is incubated for 30 min at room temperature and the reaction is terminated by addition of 5 μl of each of the cAMP detection reagents of the cAMP Gi kit (Cisbio Bioassays, 62AM9PEJ), diluted in cell lysis buffer, to each well using the multidrop in the following order: first the cAMP-d2 conjugate, then the anti-cAMP cryptate conjugate. […] Raw counts were converted to cAMP concentrations via a standard curve before EC50 and Emax determination. Data is expressed as % decrease in forskolin stimulated cAMP compared to cells treated with vehicle alone in the same buffer and on the same plate.

Chain of hGPR88 receptor (Q9GZN0 whole entry): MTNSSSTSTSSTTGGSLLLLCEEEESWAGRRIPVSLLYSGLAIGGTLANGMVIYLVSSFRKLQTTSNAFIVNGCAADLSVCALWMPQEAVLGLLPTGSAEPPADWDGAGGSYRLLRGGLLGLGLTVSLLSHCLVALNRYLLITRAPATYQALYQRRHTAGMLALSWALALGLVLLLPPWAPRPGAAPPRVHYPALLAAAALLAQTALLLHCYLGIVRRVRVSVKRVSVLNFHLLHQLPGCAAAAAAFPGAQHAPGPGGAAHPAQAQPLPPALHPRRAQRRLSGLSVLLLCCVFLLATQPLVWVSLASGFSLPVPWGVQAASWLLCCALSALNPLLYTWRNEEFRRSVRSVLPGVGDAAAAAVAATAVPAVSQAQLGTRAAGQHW

COCc1ccc(-c2ccc(N(C[C@@H](O)[C@@H](C)OC)C(=O)C3CC3c3ccccn3)cc2)cc1 (mixture of isomers) [Example 5, (rac-trans)-N-((2R,3R)-2-hydroxy-3-methoxybutyl)-N-(4′-methoxymethyl)-[1,1′-biphenyl]-4-yl)-2-(pyridin-2-yl)cyclopropane-1-carboxamide]
EC50: > 5 µM

CCCc1ccc(C23CC(NC(=O)C4CC4c4ccccn4)(C2)C3)cc1 (racemic) [Example 34, (rac-trans)-N-(3-(4-propylphenyl)bicyclo[1.1.1]pentan-1-yl)-2-(pyridin-2-yl)cyclopropane-1-carboxamide]
EC50: 1 to 5 µM

O=C(Nc1ccc(-c2ccc(CN3CCOCC3)cc2)cc1)C1CC1c1ccccn1 (racemic) [Example 37, (1R*,2R*)-N-(4′-(morpholinomethyl)-[1,1′-biphenyl]-4-yl)-2-(pyridin-2-yl)cyclopropane-1-carboxamide]
EC50: 1 to 5 µM

COCc1ccc(-c2ccc3c(c2)CCCN3C(=O)C2CC2c2ccccn2)cc1 (racemic) [Example 43, (6-(4-(methoxymethyl)phenyl)-3,4-dihydroquinolin-1(2H)-yl)((rac-trans)-2-(pyridin-2-yl)cyclopropyl)methanone]
EC50: > 5 µM

COCc1ccc(C23CC(NC(=O)C4CC4c4ccccn4)(C2)C3)cc1 (racemic) [Example 44, (rac-trans)-N-(3-(4-(methoxymethyl)phenyl)bicyclo[1.1.1]pentan-1-yl)-2-(pyridin-2-yl)cyclopropane-1-carboxamide]
EC50: 1 to 5 µM

CN(C)Cc1ccc(-c2ccc(NC(=O)C3CC3c3ccccn3)cc2)cc1 (racemic) [Example 48, (rac-trans)-N-(4′-(dimethylamino)methyl)-[1,1′-biphenyl]-4-yl)-2-(pyridin-2-yl)cyclopropane-1-carboxamide]
EC50: > 5 µM

COCc1ccc(-c2ccc3c(c2)CCN3C(=O)C2CC2c2ccccn2)cc1 (racemic) [Example 50, (5-(4-(methoxymethyl)phenyl)indolin-1-yl)((rac-trans)-2-(pyridin-2-yl)cyclopropyl)methanone]
EC50: 1 to 5 µM

COCc1ccc(-c2ccc(NC(=O)C3CC3c3ccc(F)cc3)cc2)cc1 (racemic) [Example 54, (rac-trans)-2-(4-fluorophenyl)-N-(4′-(methoxymethyl)-[1,1′-biphenyl]-4-yl)cyclopropane-1-carboxamide]
EC50: > 5 µM

COCc1ccc(-c2ccc(NC(=O)C3CC3c3ccccc3)cc2)cc1 (racemic) [Example 61, (rac-trans)-N-(4′-(methoxymethyl)-[1,1′-biphenyl]-4-yl)-2-phenylcyclopropane-1-carboxamide]
EC50: > 5 µM

COCc1ccc(-c2ccc(N(C)C(=O)C3CC3c3ccccn3)cc2)cc1 (racemic) [Example 73, (rac-trans)-N-(4′-(methoxymethyl)-[1,1′-biphenyl]-4-yl)-N-methyl-2-(pyridin-2-yl)cyclopropane-1-carboxamide]
EC50: > 5 µM

CN(C)Cc1ccc(-c2ccc(NC(=O)C3CC3c3ccccn3)nc2)cc1 (racemic) [Example 82, (rac-trans)-N-(5-(4-((dimethylamino)methyl)phenyl)pyridin-2-yl)-2-(pyridin-2-yl)cyclopropane-1-carboxamide]
EC50: > 5 µM

O=C(Nc1ccc(-c2ccc(CN3CCOCC3)cc2)cn1)C1CC1c1ccccn1 (racemic) [Example 83, (rac-trans)-N-(5-(4-(morpholinomethyl)phenyl)pyridin-2-yl)-2-(pyridin-2-yl)cyclopropane-1-carboxamide]
EC50: 1 to 5 µM

CC(C)Oc1ccc(-c2ccc(NC(=O)C3CC3c3ccccn3)cc2)cc1 (racemic) [Example 90, (rac-trans)-N-(4′-isopropoxy-[1,1′-biphenyl]-4-yl)-2-(pyridin-2-yl)cyclopropane-1-carboxamide]
EC50: 1 to 5 µM

CC(C)Oc1ccc(-c2ccc(NC(=O)C3CC3c3ccccn3)cc2)cn1 (racemic) [Example 109, (rac-trans)-N-(4-(6-isopropoxypyridin-3-yl)phenyl)-2-(pyridin-2-yl) cyclopropane-1-carboxamide]
EC50: 1 to 5 µM

COCc1ccc(C23CC(NC(=O)C4CC4c4ccccn4)(C2)C3)cc1 (racemic) [Example 110, (rac-trans)-N-(3-(4-(methoxymethyl)phenyl)bicyclo[1.1.1]pentan-1-yl)-2-(pyridin-2-yl)cyclopropane-1-carboxamide]
EC50: 1 to 5 µM

COCc1ccc(C23CC(NC(=O)C4CC4c4ccccn4)(C2)C3)cc1 (racemic) [Example 112, (rac-trans)-N-(3-(4-(methoxymethyl)phenyl)bicyclo[1.1.1]pentan-1-yl)-2-(pyridin-2-yl)cyclopropane-1-carboxamide]
EC50: > 5 µM

COCc1ccc(-c2ccc(NC(=O)C3CC3c3ccccn3)nc2)cc1 (racemic) [Example 120, (rac-trans)-N-(5-(4-(methoxymethyl)phenyl)pyridin-2-yl)-2-(pyridin-2-yl)cyclopropane-1-carboxamide]
EC50: 1 to 5 µM

COCc1ccc(-c2ccc(NC(=O)C3CC3c3ccccn3)cc2)cc1 (single isomer, unassigned) [Example 19, N-(4′-(methoxymethyl)-[1,1′-biphenyl]-4-yl)-2-(pyridin-2-yl)cyclopropane-1-carboxamide]
EC50: > 5 µM

O=C(Nc1ccc(-c2ccc(CN3CCOCC3)cc2)cc1)C1CC1c1ccccn1 (single isomer, unassigned) [Example 77, (1R*,2R*)-N-(4′-(morpholinomethyl)-[1,1′-biphenyl]-4-yl)-2-(pyridin-2-yl)cyclopropane-1-carboxamide]
EC50: 1 to 5 µM

CC(c1ccc(-c2ccc(NC(=O)C(C)(C)Oc3ccc(F)cc3)cc2)cc1)N1CCOCC1 (single isomer, unassigned) [Example 122, 2-(4-fluorophenoxy)-2-methyl-N-(4′-(1-morpholinoethyl)-[1,1′-biphenyl]-4-yl)propanamide]
EC50: 1 to 5 µM

CC(c1ccc(-c2ccc(NC(=O)C(C)(C)Oc3ccc(F)cc3)cc2)cc1)N1CCOCC1 (single isomer, unassigned) [Example 123, 2-(4-fluorophenoxy)-2-methyl-N-(4′-(1-morpholinoethyl)-[1,1′-biphenyl]-4-yl)propanamide]
EC50: < 1 µM

O=C(Nc1ccc(-c2ccc(OC3CC3)cc2)cc1)C1CC1c1ccccn1 (single isomer, unassigned) [Example 130, N-(4′-cyclopropoxy-[1,1′-biphenyl]-4-yl)-2-(pyridin-2-yl)cyclopropane-1-carboxamide]
EC50: > 5 µM

CC(C)Oc1ccc(-c2ccc(NC(=O)C3CC3c3ccccn3)cc2)cn1 (single isomer, unassigned) [Example 133, N-(4-(6-isopropoxypyridin-3-yl)phenyl)-2-(pyridin-2-yl)cyclopropane-1-carboxamide]
EC50: 1 to 5 µM

CC(C)Oc1ccc(-c2ccc(NC(=O)C3CC3c3ccccn3)cc2)cn1 (single isomer, unassigned) [Example 134, N-(4-(6-isopropoxypyridin-3-yl)phenyl)-2-(pyridin-2-yl)cyclopropane-1-carboxamide]
EC50: > 5 µM

COCc1ccc(-c2ccc(NC(=O)C(C)Oc3ccc(F)cc3)cc2)cc1 (stereo not drawn) [Example 6]
EC50: > 5 µM

CC(C)(Oc1ccc(F)cc1)C(=O)Nc1ccc(-c2ccc(C(F)(F)F)cc2)cc1 [Example 10, 2-(4-fluorophenoxy)-2-methyl-N-(4′-(trifluoromethyl)-[1,1′-biphenyl]-4-yl)propenamide]
EC50: > 5 µM

COc1ccc(-c2ccc(NC(=O)C(C)(C)Oc3ccc(F)cc3)cc2)cc1 [Example 11, 2-(4-fluorophenoxy)-N-(4′-methoxy-[1,1′-biphenyl]-4-yl)-2-methylpropanamide]
EC50: > 5 µM

CC(C)(Oc1ccc(F)cc1)C(=O)Nc1ccc(-c2ccc(OC(F)(F)F)cc2)cc1 [Example 12, 2-(4-fluorophenoxy)-2-methyl-N-(4′-(trifluoromethoxy)-[1,1′-biphenyl]-4-yl)propanamide]
EC50: > 5 µM

CCN(C(=O)C(C)(C)Oc1ccc(F)cc1)c1ccc(-c2ccc(COC)cc2)cc1 [Example 14, N-ethyl-2-(4-fluorophenoxy)-N-(4′-(methoxymethyl)-[1,1′-biphenyl]-4-yl)-2-methylpropanamide]
EC50: 1 to 5 µM

COCCN(C(=O)C(C)(C)Oc1ccc(F)cc1)c1ccc(-c2ccc(COC)cc2)cc1 [Example 15, 2-(4-fluorophenoxy)-N-(2-methoxyethyl)-N-(4′-(methoxymethyl)-[1,1′-biphenyl]-4-yl)-2-methylpropanamide]
EC50: 1 to 5 µM

CN(C)C(=O)c1ccc(-c2ccc(NC(=O)C(C)(C)Oc3ccc(F)cc3)cc2)cc1 [Example 16, 4′-(2-(4-fluorophenoxy)-2-methylpropanamido)-N,N-dimethyl-[1,1′-biphenyl]-4-carboxamide]
EC50: > 5 µM

CCCN(C(=O)C(C)(C)Oc1ccc(F)cc1)c1ccc(-c2ccc(C)cc2)cc1 [Example 20, 2-(4-fluorophenoxy)-2-methyl-N-(4′-methyl-[1,1′-biphenyl]-4-yl)-N-propylpropanamide]
EC50: > 5 µM

Cc1ccc(-c2ccc(N(CC(C)C)C(=O)C(C)(C)Oc3ccc(F)cc3)cc2)cc1 [Example 21, 2-(4-fluorophenoxy)-N-isobutyl-2-methyl-N-(4′-methyl-[1,1′-biphenyl]-4-yl)-2-methylpropanamide]
EC50: > 5 µM

CCCN(C(=O)C(C)(C)Oc1ccc(F)cc1)c1ccc(-c2ccc(COC)cc2)cc1 [Example 22, 2-(4-fluorophenoxy)-N-(4′-(methoxymethyl)-[1,1′-biphenyl]-4-yl)-2-methyl-N-propylpropanamide]
EC50: 1 to 5 µM

COCc1ccc(-c2ccc(N(CC(C)C)C(=O)C(C)(C)Oc3ccc(F)cc3)cc2)cc1 [Example 23, 2-(4-fluorophenoxy)-N-isobutyl-N-(4′-(methoxymethyl)-[1,1′-biphenyl]-4-yl)-2-methylpropanamide]
EC50: > 5 µM

Cc1ncc(-c2ccc(NC(=O)C(C)(C)Oc3ccc(F)cc3)cc2)cn1 [Example 24, 2-(4-fluorophenoxy)-2-methyl-N-(4-(2-methylpyrimidin-5-yl)phenyl)propenamide]
EC50: > 5 µM
